Experimental data from PMC5896380, “Selective imaging of cathepsin L in breast cancer by fluorescent activity-based probes” (Chemical Science, 2018).

What was measured:
cathepsin L = biological target: T1, cathepsin L (Homo sapiens, UniProt P07711); assay: kobs/I of activity-based probes, cathepsin L; format: biochemical; conditions: Fig. 6A; pseudo-first order, probe at least 5-fold excess over cathepsin, 100 μM ACC substrate; pH 5.5, 37 °C; triplicate, SD below 20%
T1 construct: made in house
Experimental: All kinetic experiments were performed using fMax (Molecular Devices) and CLARIOStar (BMG LABTECH) spectrofluorimeters operating in kinetic mode using 96-well plates. ACC-labeled substrates were screened using 355 nm and 460 nm wavelengths (excitation and emission, respectively). […] The buffer was prepared at room temperature and the enzyme kinetic studies were performed at 37 °C.
For the kinetic studies, five recombinant human cathepsins (B, L, V, K and S) were expressed and purified and active site titrated using an E64 inhibitor. The kobs/I parameter was measured under pseudo-first order kinetic conditions, as described.[40] The cathepsin of interest was mixed with various concentrations of probe (at least 5-fold excess over cathepsin) and 100 μM ACC-fluorescence substrate. The experiments were repeated at least three times, and the results are presented as an average. The SDs were below 20%.

[1] = system: cathepsin L in MDA-MB-231 cells; assay: Weighted colocalization of probe with cathepsin L antibody, confocal microscopy; format: cell-based, human; conditions: 1 μM probe
Experimental: Glass coverslips 15 mm in diameter were placed in 12-well plates and coated with poly-D-lysine (500 μL, 1 mg mL^–1 in water, Specialty Media) for 30 minutes. The poly-D-lysine was aspirated and the coverslips were washed twice with sterile water and air-dried. Next, low passage MDA-MB-231 cells in DMEM (100 000 cells per mL) were added to wells (1 mL per well) and allowed to attach for 2 hours. Cells were then treated with Cy5-labeled probes (1 μM) for 8 or 24 hours. The control cells were preincubated with E64d for 2 hours. After various incubation times, the medium was removed and the cells were gently washed twice with DPBS (1 mL each). The cells were then fixed with ice-cold methanol (500 μL per well) for 15 minutes at –20 °C. The methanol was gently removed and the fixed cells were washed twice with DPBS, blocked and permeabilized with 10% BSA in DPBS (with 0.5% Triton-X, v/v) for 1 hour at room temperature, and washed twice with 3% BSA in DPBS (with 0.5% Triton-X, v/v). Cathepsins L and B were detected by primary goat anti-hCathepsin L (R&D, AF952, 0.2 mg mL^–1, 1 : 200) and goat anti-hCathepsin B (R&D, AF953, 0.2 mg mL^–1, 1 : 80), respectively, in 3% BSA in DPBS (with 0.5% Triton-X, v/v) for 2 hours at room temperature. The antibodies were removed and the cells were washed twice with 3% BSA in DPBS (with 0.5% Triton-X, v/v) and labeled with a secondary antibody (Alexa Fluor™ 488 donkey anti-goat IgG (H + L), A11055, Invitrogen, 1 : 500) in DPBS (with 0.5% Triton-X, v/v) for 1 hour at room temperature. Next, the cells were washed twice with DPBS, and coverslips were mounted using Vectashield mounting medium fluorescence containing DAPI (Vector Lab. H-1000). In brief, a drop of mounting medium was placed on the Superfrost Plus microscope slide (Fisher Scientific, no. 12-550-15) and the coverslip was placed on the drop upside-down. […] DAPI was detected using the UV channel, the Cy5 probe was detected with a Cy5 filter (excitation at 647 nm (Axio Observer) or 633 nm (Zeiss LSM), emission at 667 nm; red channel) and cathepsins/secondary antibodies were read using FITC filters (excitation at 495 nm (Axio Observer) or 488 nm (Zeiss LSM), emission at 517 nm; […]; green channel). All images were acquired in .tiff format in MetaMorph software or in .lsm format in ZEN software and analyzed using ImageJ and ZEN software. […]
To quantify ABP/cathepsin colocalization we calculated weighted colocalization coefficients between the MP-cL3 ABP (red) and cathepsin L (green) and between the MP-cL3 ABP (red) and cathepsin B (green) using ZEN 2011 software. […]

T1 sequence (P07711 114-333): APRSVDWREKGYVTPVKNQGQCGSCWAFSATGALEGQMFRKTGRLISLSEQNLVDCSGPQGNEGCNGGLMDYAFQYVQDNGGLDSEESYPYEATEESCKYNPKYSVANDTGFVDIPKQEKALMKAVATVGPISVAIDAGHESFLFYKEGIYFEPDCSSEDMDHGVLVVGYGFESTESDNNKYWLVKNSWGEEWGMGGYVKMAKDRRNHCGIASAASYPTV

kobs/I Cath-L (cathepsin L): 322,000 M^-1s^-1
Substance: Cy5-6-ahx-His-DThr-Phe(F5)-Cys(Bzl)-AOMK [MP-cL3]
weighted colocalization coefficient ([1]; CatL ab (8h), single cells analysis, 98 single cells): 0.928
weighted colocalization coefficient ([1]; CatL ab (8h), whole pictures analysis, 8 images): 0.937
weighted colocalization coefficient ([1]; CatL ab (24h), single cells analysis, 59 single cells): 0.695
weighted colocalization coefficient ([1]; CatL ab (24h), whole pictures analysis, 8 images): 0.725
